Reference: US12128098B2, “Non-specific delayed-type hypersensitivity response to treat herpes simplex virus infection” (Squarex, LLC, priority 2015, dated 2024)
“And” between values parts separate entries of the source, which are not always exact repeats. Equal values may be shown once. “Also recorded” adds a separate entry of the source. Marks after values point to notes of the source that are not given here.

Key:
[1] = Presensitization and dose finding with DNCB solutions on the forearm (rash / erythema, DTH response); assay type: in vivo, human; details: for erythema on forearm: sensitized subject
Source text: The subject then applied a 0.1%, 0.2%, and 0.3% solutions to separate small spots on the forearm.

[2] = tested on: HSV outbreak (cold sore on lower lip); test: Treatment of an individual suffering from frequent and severe cold sores with topical DNCB at the site of the lesion; assay type: in vivo, human
Source text: The individual treated was one of the inventors. They are a person and was […] at the time of this treatment. The subject suffered from frequent cold sores on the lower lip. The outbreaks typically lasted 7-10 days and frequently longer. The subject had suffered from frequent cold sores most of their life. During the 6 months prior to this treatment, the outbreaks had been almost continuous. After getting over one outbreak, the next outbreak would begin often within a week.
In the morning they washed it off. A mild erythema in the area of the cold sore developed over 2-3 days and lasted a further 5 days, and the cold sore resolved in about 7 days, which was a typical duration for this individual or a slightly shorter duration than normal. […] Each outbreak would begin and completely resolve in one day. […] We think this may be because the immune system was recognizing not just the DNCB but also the herpes virus antigens with this second application. With the greater inflammation, the cold sore outbreak was worse than any of the outbreaks between the first and second DNCB treatments. […] The outbreak seemed to worsen as the inflammation associated with the DTH response worsened, and only lessened when the DTH response subsided.
When the outbreak subsided, the subject went another 6 months without any outbreaks to the present time.
For several months before and for the entire time described herein after the initial DNCB treatment, the subject took no antiviral medicines.

[3] = tested on: herpes labialis (HSV cold sore outbreaks); test: Clinical trial: treatment of herpes labialis by squaric acid dibutyl ester, time to and proportion of cold sore outbreaks after the sensitization dose; assay type: in vivo, human; details: for Average days to first outbreak after the sensitization dose: 120 days used if no outbreak in 120 days
Procedure: Thirty patients are recruited meeting the following criteria:
In a screening interview, vital signs are recorded, and information is collected on any medications the patient is currently taking, previous and current treatments for cold sores, severity and duration of cold sores.
[…] Participants are told then to wait at least 2 weeks for their first treatment.
Throughout the study, the participants are asked to maintain a subject diary, in which they record each day any symptoms they experience, including fever, swelling, pain, redness, itching, burning, the size of any lesions, and any medications taken.
Visit 2: After the 2-week period to allow development of sensitivity to SADBE, upon the beginning of his or her next outbreak (within 72 hours of the first signs of an outbreak), each participant is swabbed at the site of the herpes labialis lesion with a 0.5% solution of SADBE in DMSO.
Visit 3: Upon the next distinct outbreak at least 2 weeks after the previous treatment at visit 2, study diaries are collected. If the diary reflects redness, blistering, or burning greater than 0.5 cm beyond the clinical lesion with the previous SADBE treatment, the dosage of SADBE is decreased to 0.1%. If the diary reflects no redness or inflammation attributable to SADBE treatment, dosage is increased to 2%. Otherwise, dosage is maintained at 0.5%. Participants are swabbed at the site of the herpes labialis lesion with the SADBE solution.
If the hypersensitivity reaction produced by SADBE is excessive, patients are treated with a topical steroidal antiinflammatory cream. When a patient requests, outbreaks are treated with oral valacyclovir until the outbreak resolves.
For at least 6 months after visit 2, patients maintain their diaries. Every two months the diaries are collected.
A total of 46 patients have been enrolled in the study and have not dropped out.
The p value was calculated using the Fischer's two-tailed exact test.
The average days to the first outbreak after the sensitization dose was also measured. […] The A: placebo, 0% SADBE in DMSO.

[4] = Clinical trial of SADBE: rash (erythema) from the sensitization dose; assay type: in vivo, human; details: pooled treatment groups B and C, 2% SADBE in DMSO
Source text: Visit 1: Upon entering the study, patients are sensitized to squaric acid dibutyl ester (SADBE) by dipping a cotton-tipped swab in a 2% solution of SADBE in DMSO and swabbing a 1 cm^2 area on the forearm. Participants are told then to wait at least 2 weeks for their first treatment.

[5] = tested on: warts; details: intralesional injection together with antigens versus antigen alone; differences not statistically significant; US 20050175634; cited from earlier work
[6] = third treatment, 0.1% DNCB solution on cold sore

O=[N+]([O-])c1ccc(Cl)c([N+](=O)[O-])c1 [DNCB, 1-chloro-2,4-dinitrobenzene]
erythema on forearm ([1]; 0.1% DNCB solution): almost no erythema
erythema on forearm ([1]; 0.2% DNCB solution): mild but easily seen erythema
rash after presensitizing application ([1]; 2% DNCB solution in acetone, cotton-tipped swab, two spots on forearm, first application): No rash developed
duration of rash after second application ([1]; 2% DNCB solution on forearm, two weeks after the sensitizing dose): 3 weeks
rash after second application ([1]; 2% DNCB solution on forearm, two weeks after the sensitizing dose, different spots): very strong but localized rash
severity and duration of subsequent outbreaks ([2]; 4 weeks following the first 0.2% DNCB treatment of the lip lesion): much less severe and of much shorter duration than before
time without any outbreak after treatment ([2]; after the third treatment (0.1% DNCB), to the present time): 6 months
erythema in the area of the cold sore ([2]; first application of 0.2% DNCB in acetone to cold sore on lower lip, left overnight): mild erythema
time to resolution of the treated cold sore ([2]; first application of 0.2% DNCB in acetone to the lip lesion, typical outbreaks before lasted 7-10 days): about 7 days
time without any outbreak after treatment ([2]; following the second DNCB treatment at the site of a lesion): 6 months
frequency of cold sore outbreaks after treatment ([2]; next 4 weeks following the first 0.2% DNCB treatment): approximately weekly
duration of each subsequent outbreak ([2]; outbreaks in the 4 weeks following the first 0.2% DNCB treatment): one
inflammation and erythema with the application ([2]; second application of 0.2% DNCB in acetone to lip lesion, about two months after the first): more severe than they had been with the first application
duration of the treated HSV outbreak ([2]; second application of 0.2% DNCB to lip lesion): about 7 days
DTH response at the cold sore [2, 6]: moderate DTH response
duration of the treated HSV outbreak [2, 6]: about 10 days

CCCCOc1c(OCCCC)c(=O)c1=O [SADBE, 3,4-Dibutoxy-3-cyclobutene-1,2-dione]
Persons having an outbreak within X days after the sensitization dose ([3]; <120 days, group B): 6 (of 16)
Persons having an outbreak within X days after the sensitization dose ([3]; <120 days, group C): 4 (of 15)
Days to first new outbreak after sensitization dose on upper arm ([3]; each patient, 2% SADBE applied to the inner aspect of the upper arm): 37 days and 41 days and 50 days and 80 days and 91 days and >120 days (19×) and 14 days (2×) and 15 days and 18 days and 34 days
Average days to first outbreak after the sensitization dose ([3]; group B, n 16): 88.5 days
Average days to first outbreak after the sensitization dose ([3]; group C, n 15): 94.7 days
Average days to first outbreak after the sensitization dose ([3]; pooled groups B + C, n 31, p=0.041 vs placebo, t test): 91.5* days
proportion who had a first outbreak between 30 and 120 days after receiving the sensitization dose ([3]; pooled groups B and C): 5 of 26
effect on future HSV outbreaks ([3]; single topical sensitization dose of 2% SADBE in DMSO on the upper arm, no application at the lesion): prevented future HSV outbreaks; also recorded: usually did not have a subsequent outbreak during the study time
median time to the next HSV outbreak versus placebo ([3]; treated patients who did not develop a visible erythema at the site of application): longer median time to the next HSV outbreak than patients receiving placebo
median time to the next outbreak, outbreaks occurring in the 21 days after the sensitization dose excluded ([3]; treatment group, counting from the day of the sensitization dose): greater than 120 days
median time to the next outbreak counting from day 21 after the sensitization dose ([3]; treatment group, outbreaks in first 21 days excluded): greater than 99 days
Persons having an outbreak within X days after the sensitization dose ([3]; within 30 days, group B (2% SADBE in DMSO sensitization, 0.5% treatment solution)): 2 (of 16)
Persons having an outbreak within X days after the sensitization dose ([3]; within 30 days, group C (2% SADBE in DMSO sensitization, 0.2% treatment solution)): 3 (of 15)
Persons having an outbreak within X days after the sensitization dose ([3]; within 30 days, pooled groups B + C (of 31), p vs placebo 0.26): 5
Persons having an outbreak within X days after the sensitization dose ([3]; within 45 days, group B): 4 (of 16)
Persons having an outbreak within X days after the sensitization dose ([3]; within 45 days, group C): 4 (of 15)
Persons having an outbreak within X days after the sensitization dose ([3]; within 45 days, pooled groups B + C (of 31), p vs placebo 0.099): 8
Persons having an outbreak within X days after the sensitization dose ([3]; within 60 days, group B): 5 (of 16)
Persons having an outbreak within X days after the sensitization dose ([3]; within 60 days, group C): 4 (of 15)
Persons having an outbreak within X days after the sensitization dose ([3]; within 60 days, pooled groups B + C (of 31), p vs placebo 0.0583): 9
subjects who had a rash (erythema) from the sensitization dose [4]: 17 of 28

GM-CSF: cytokine used as immune response enhancer
fraction of patients responding to treatment [5]: A larger fraction of patients receiving interferon or GM-CSF together with the antigens responded to treatment than patients receiving antigen alone

interferon alpha
fraction of patients responding to treatment [5]: A larger fraction of patients receiving interferon or GM-CSF together with the antigens responded to treatment than patients receiving antigen alone
